# Laboratory results taken from patent publication US10946007B2, “4-[2-(2-fluorophenoxymethyl)phenyl]piperidine compounds” (THERAVANCE BIOPHARMA R&D IP, LLC, priority 2008, dated 2021).
# What was measured:
# [1] = molecular target: T1, hSERT (Homo sapiens, UniProt P31645); assay: hSERT membrane radioligand binding assay (Assay 1, 3H-citalopram); conditions: Assay 1, membranes of HEK-293 cells expressing hSERT; read-out: SERT pKi (converted)
# T1 construct: expressed in transfected cells; host or cells: HEK-293
# Protocol: (§1) Membrane radioligand binding assays were used to measure competitive inhibition of labeled ligand (^3H-citalopram or ^3H-nisoxetine or ^3H-WIN35428) binding to membranes prepared from cells expressing the respective human recombinant transporter (hSERT or hNET or hDAT) in order to determine the pKi values of test compounds at the transporters.
# (§2) Recombinant human embryonic kidney (HEK-293) derived cell lines stably transfected with hSERT or hNET, respectively, were grown in DMEM medium supplemented with 10% dialyzed FBS (for hSERT) or FBS (for hNET), 100 μg/ml penicillin, 100 μg/ml streptomycin, 2 mM L-glutamine and 250 μg/ml of the aminoglycoside antibiotic G418, in a 5% CO2 humidified incubator at 37° C. When cultures reached 80% confluence, the cells were washed thoroughly in PBS (without Ca^2+ and Mg^2+) and lifted with 5 mM EDTA in PBS. Cells were pelleted by centrifugation, resuspended in lysis buffer (10 mM Tris-HCl, pH7.5 containing 1 mM EDTA), homogenized, pelleted by centrifugation, then resuspended in 50 mM Tris-HCl, pH 7.5 and 10% sucrose at 4° C. Protein concentration of the membrane suspension was determined using a Bio-Rad Bradford Protein Assay kit. Membranes were snap frozen and stored at −80° C. Chinese hamster ovary membranes expressing hDAT (CHO-DAT) were purchased from PerkinElmer and stored at −80° C.
# (§3) Binding assays were performed in a 96-well assay plate in a total volume of 200 μl assay buffer (50 mM Tris-HCl, 120 mM NaCl, 5 mM KCl, pH 7.4) with 0.5, 1, and 3 μg membrane protein, for SERT, NET and DAT, respectively.
# (§4) Stock solutions (10 mM in DMSO) of test compound were prepared and serial dilutions made using Dilution Buffer (50 mM Tris-HCl, 120 mM NaCl, 5 mM KCl, pH 7.4, 0.1% BSA, 400 μM ascorbic acid).
# (§5) Following a 60 minute incubation at 22° C. (or a period sufficient to reach equilibrium), the membranes were harvested by rapid filtration over a 96-well UniFilter GF/B plate, pretreated with 0.3% polyethyleneimine, and washed 6 times with 300 μl wash buffer (50 mM Tris-HCl, 0.9% NaCl, pH 7.5 at 4° C.). Plates were dried overnight at room temperature, 45 μl of MicroScint™-20 (Perkin Elmer) added and bound radioactivity quantitated via liquid scintillation spectroscopy. Competitive inhibition curves and saturation isotherms were analyzed using GraphPad Prism Software package (GraphPad Software, Inc., San Diego, Calif.). IC50 values were generated from concentration response curves using the Sigmoidal Dose Response (variable slope) algorithm in Prism GraphPad.
# [2] = molecular target: T2, hNET (Homo sapiens, UniProt P23975); assay: hNET membrane radioligand binding assay (Assay 1, 3H-nisoxetine); conditions: Assay 1, membranes of HEK-293 cells expressing hNET; read-out: NET pKi (converted)
# T2 construct: expressed in transfected cells; host or cells: HEK-293
# Protocol: as §1, §2, §3, §4, §5
# T1 sequence (P31645 whole entry): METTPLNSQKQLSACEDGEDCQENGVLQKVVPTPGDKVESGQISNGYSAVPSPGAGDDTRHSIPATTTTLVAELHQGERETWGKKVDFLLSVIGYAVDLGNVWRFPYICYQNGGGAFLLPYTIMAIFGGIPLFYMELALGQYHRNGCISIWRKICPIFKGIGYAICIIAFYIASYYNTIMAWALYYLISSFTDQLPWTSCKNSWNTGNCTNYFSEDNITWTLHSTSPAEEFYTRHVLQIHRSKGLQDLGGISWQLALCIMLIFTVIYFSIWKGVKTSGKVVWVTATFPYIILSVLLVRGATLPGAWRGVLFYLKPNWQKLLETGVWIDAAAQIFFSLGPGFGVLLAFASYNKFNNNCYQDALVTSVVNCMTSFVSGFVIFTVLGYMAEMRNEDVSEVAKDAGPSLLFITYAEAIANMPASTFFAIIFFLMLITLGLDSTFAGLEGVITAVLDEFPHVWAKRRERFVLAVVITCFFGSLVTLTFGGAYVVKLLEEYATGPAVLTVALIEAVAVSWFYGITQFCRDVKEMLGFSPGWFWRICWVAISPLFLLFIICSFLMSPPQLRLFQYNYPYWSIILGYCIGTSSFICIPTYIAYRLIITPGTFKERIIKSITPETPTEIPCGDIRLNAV
# T2 sequence (P23975 whole entry): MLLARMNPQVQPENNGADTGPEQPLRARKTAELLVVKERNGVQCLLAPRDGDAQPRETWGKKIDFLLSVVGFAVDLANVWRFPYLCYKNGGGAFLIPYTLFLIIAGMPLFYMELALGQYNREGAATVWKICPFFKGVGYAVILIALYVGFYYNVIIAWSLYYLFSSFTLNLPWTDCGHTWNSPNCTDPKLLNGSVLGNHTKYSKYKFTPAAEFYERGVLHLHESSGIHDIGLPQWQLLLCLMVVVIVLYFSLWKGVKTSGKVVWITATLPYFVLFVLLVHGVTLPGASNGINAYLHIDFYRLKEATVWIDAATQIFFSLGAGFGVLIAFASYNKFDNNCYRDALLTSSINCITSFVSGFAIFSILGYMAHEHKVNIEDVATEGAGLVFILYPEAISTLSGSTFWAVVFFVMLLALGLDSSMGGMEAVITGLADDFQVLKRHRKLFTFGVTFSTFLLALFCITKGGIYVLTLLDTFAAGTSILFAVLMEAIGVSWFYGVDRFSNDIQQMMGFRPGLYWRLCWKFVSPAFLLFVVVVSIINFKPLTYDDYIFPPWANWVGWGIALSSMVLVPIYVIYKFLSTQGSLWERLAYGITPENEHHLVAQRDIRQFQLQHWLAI
Ki [1],Ki [2],Structure (SMILES)
3.98 nM,31.6 nM,Clc1ccccc1OCc1ccccc1C1CCNCC1 [Compound 2-chloro]
1.58 nM,31.6 nM,Cc1ccccc1OCc1ccccc1C1CCNCC1 [Compound 2-methyl]
12.6 nM,5.01 nM,Fc1ccccc1OCc1ccccc1C1CCNCC1 [Compound 3-1]
31.6 nM,39.8 nM,c1ccc(OCc2ccccc2C2CCNCC2)cc1 [unsubstituted]
